Data on 24 compounds can be found in PubChem BioAssay (NCI).

Some test systems named below: CAKI-1 renal; DLD-1 colon; DMS 114 small cell lung; DMS 273 small cell lung; HOP-18 NSCLC; HT29 colon; KM20L2 colon; LXFL 529 NSCLC; M19-MEL melanoma; RXF-631 renal; SNB-78 CNS; SR leukemia; SW-620 colon; XF 498 CNS; PC-3 prostate.
Assay in all cases: NCI tumour cell line growth inhibition, 48 h

Structures are written as SMILES.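 Step 1: Grow cells in 96-well plates. Step 2: Expose to compound for 48 hours at 5 concentrations. Step 3: Interpolate endpoints linearly; if unreached, use highest concentration. TGI: concentration producing complete growth inhibition.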 Bounds are passed on as bounds.

In the case of `COc1cccc2c1C(=O)c1c(O)c3c(c(O)c1C2=O)CC(O)(C(C)=O)CC3OC1CC([N+](C)(C)C)C(O)C(C)O1` (configuration not stated), the TGI in the experiment on CAKI-1 renal, with DLD-1 colon, in the experiment with DMS 114 small cell lung, in the experiment with DMS 273 small cell lung, in the experiment with HOP-18 NSCLC and in the experiment with HT29 colon was more than 100 µM in each case. The TGI in the experiment on KM20L2 colon, with LXFL 529 NSCLC, with M19-MEL melanoma, in the experiment on RXF-631 renal, in the experiment with SNB-78 CNS and in the experiment on SR leukemia was more than 100 µM in each case. Also, the TGI in the experiment on SW-620 colon is more than 100 µM; in the experiment with XF 498 CNS, 92.2 µM.
As to `CC[N+](C)(C)c1ccc(C(=C2C=CC(=[N+](C)C)C=C2)c2ccc(N(C)C)cc2)cc1`, the TGI in the experiment with CAKI-1 renal was more than 100 µM; in the experiment with DLD-1 colon it was 62.4 µM; with DMS 114 small cell lung, 26.7 µM; in the experiment on DMS 273 small cell lung, 25.6 µM; in the experiment with HOP-18 NSCLC it was more than 100 µM; with HT29 colon, 30.6 µM. The TGI in the experiment with LXFL 529 NSCLC is 34.1 µM; in the experiment with M19-MEL melanoma, 25 µM; in the experiment with RXF-631 renal it was 38.4 µM; in the experiment with SR leukemia, 35.6 µM; in the experiment with SW-620 colon, 52.1 µM; in the experiment on XF 498 CNS, 33.2 µM.
Consider `CC12CC(=O)OC(Cc3ccccc31)O2` (configuration not stated), for which the TGI in the experiment on DLD-1 colon, with DMS 114 small cell lung, with DMS 273 small cell lung, in the experiment with HOP-18 NSCLC, with HT29 colon and in the experiment on KM20L2 colon was more than 100 µM in each case. Moreover, the TGI in the experiment on LXFL 529 NSCLC, in the experiment with M19-MEL melanoma, with SNB-78 CNS, in the experiment with SR leukemia, in the experiment on SW-620 colon and with XF 498 CNS was more than 100 µM in each case.
`Cc1c2[nH]c3ccc(Br)cc3c2c(C)c2[nH]ccc(=O)c12`: the TGI with CAKI-1 renal was 28 µM; in the experiment on DLD-1 colon, more than 100 µM; in the experiment with DMS 114 small cell lung it was 35.2 µM; in the experiment with DMS 273 small cell lung, 27 µM; with HOP-18 NSCLC, 22.9 µM; in the experiment with HT29 colon, 30.2 µM. The TGI in the experiment with M19-MEL melanoma amounted to 29.6 µM; in the experiment with SNB-78 CNS, 35.7 µM; in the experiment with SR leukemia, 37.9 µM; in the experiment with SW-620 colon, 25.5 µM; with XF 498 CNS, 29.7 µM.
As to `COC1=C(OC)C(=O)c2cc(SC)c(=O)c(SC)cc2C1=O`, the TGI in the experiment on CAKI-1 renal is more than 100 µM; in the experiment with DLD-1 colon, more than 100 µM; with DMS 114 small cell lung it was 13.4 µM; in the experiment with DMS 273 small cell lung it was more than 100 µM; with HOP-18 NSCLC, 82.2 µM; with HT29 colon, more than 100 µM. Also, the TGI with KM20L2 colon was more than 100 µM; with LXFL 529 NSCLC it was 29.5 µM; in the experiment with SR leukemia it was 22.7 µM; with SW-620 colon, more than 100 µM; in the experiment with XF 498 CNS, 15.1 µM.
Consider `Cc1cccc(/C=N/NC(=S)NC2CCCCC2)n1`, for which the TGI with CAKI-1 renal was more than 100 µM; with HT29 colon it was 42.1 µM; in the experiment on PC-3 prostate, more than 100 µM; in the experiment on SR leukemia it was more than 78.3 µM; with SW-620 colon, more than 100 µM.
As to `CN1NC2=NCCN=C3NN(C)C(=NCCN=C1S2)S3`, the TGI with DLD-1 colon, in the experiment on DMS 273 small cell lung, in the experiment with HOP-18 NSCLC, with HT29 colon, in the experiment on KM20L2 colon and in the experiment on LXFL 529 NSCLC was more than 100 µM each time. The TGI in the experiment on M19-MEL melanoma, in the experiment on SNB-78 CNS, with SR leukemia and with SW-620 colon was more than 100 µM throughout.
Consider `CCOC(=O)NC(Nc1cccc(F)c1)(C(F)(F)F)C(F)(F)F`, for which the TGI with CAKI-1 renal, in the experiment with HT29 colon, with PC-3 prostate, in the experiment with SR leukemia and in the experiment on SW-620 colon was more than 100 µM each time.
For the compound `CC1=NN(c2cccc(Cl)c2)C(=N/c2nc3ccccc3s2)/C1=C\c1ccccc1O`, the TGI with CAKI-1 renal was more than 100 µM; in the experiment with HT29 colon, 97.8 µM; with PC-3 prostate, 48.7 µM; in the experiment on SR leukemia it was 77.3 µM; with SW-620 colon, more than 100 µM.
For the compound `CC1=CC(=C(c2ccc(N)c(C)c2)c2ccc(N)c(C)c2)C=CC1=N`, the TGI is 62.4 µM in the experiment with CAKI-1 renal; more than 100 µM with DLD-1 colon; 9.96 µM in the experiment on DMS 114 small cell lung; 10.8 µM with DMS 273 small cell lung; 15.6 µM with HT29 colon; 14.5 µM in the experiment on KM20L2 colon. In addition, the TGI in the experiment on LXFL 529 NSCLC is 15 µM; in the experiment on M19-MEL melanoma, 14.7 µM; in the experiment on SNB-78 CNS it was 23.4 µM; in the experiment on SR leukemia, 18.3 µM; in the experiment on SW-620 colon it was 17.7 µM; with XF 498 CNS, 11.7 µM.
With `CC1(C)C2CC1C(/C=N\OCC(=O)O)=CC2=O` (configuration not stated), the TGI in the experiment on CAKI-1 renal, with HT29 colon, with PC-3 prostate, with SR leukemia and in the experiment with SW-620 colon was more than 100 µM in each case.
As for `CCOC(=O)C12C3CCC1C2C(=O)C3` (configuration not stated), the TGI in the experiment with CAKI-1 renal, with HT29 colon, in the experiment with PC-3 prostate, in the experiment on SR leukemia and in the experiment with SW-620 colon was more than 100 µM in each case.
With `Clc1ccccc1-c1nn2c(CCCCCCCCc3nnc4sc(-c5ccccc5Cl)nn34)nnc2s1`, the TGI with CAKI-1 renal, with HT29 colon, in the experiment with PC-3 prostate, in the experiment on SR leukemia and with SW-620 colon was more than 100 µM in each case.
On to `CCOC(=O)Nn1cnnc1Cc1ccccc1`, for which the TGI in the experiment with CAKI-1 renal, with HT29 colon, in the experiment on PC-3 prostate, in the experiment on SR leukemia and with SW-620 colon was more than 100 µM each time.
As to `C=C[C@@]1(C)CC(=O)[C@]2(O)[C@@]3(C)[C@@H](OC(C)=O)CCC(C)(C)[C@@H]3[C@H](O)[C@H](OC(C)=O)[C@@]2(C)O1`, the TGI in the experiment with CAKI-1 renal, in the experiment on HT29 colon, with PC-3 prostate, with SR leukemia and with SW-620 colon was more than 100 µM throughout.
Take `COC(=O)C1=C(O)C(C(=O)OC)[C@]2(O)[C@H](C(=O)OC)[C@H]1C[C@@H](c1ccc(O)cc1)[C@H]2C(=O)OC` (some centres not stated): the TGI is more than 100 µM with CAKI-1 renal; more than 100 µM in the experiment on HT29 colon; 76.4 µM in the experiment on PC-3 prostate; more than 100 µM with SR leukemia; more than 100 µM in the experiment with SW-620 colon.
As for `COC(=O)CC(SCCO)SCCO`, the TGI in the experiment with CAKI-1 renal, in the experiment on HT29 colon, in the experiment on PC-3 prostate, in the experiment on SR leukemia and in the experiment with SW-620 colon was more than 100 µM each time.
On to `COC(=O)C1=C(O)C(C(=O)OC)[C@]2(O)[C@H](C(=O)OC)[C@H]1C[C@@H](c1ccc(Cl)cc1Cl)[C@H]2C(=O)OC` (some centres not stated), for which the TGI in the experiment on CAKI-1 renal is more than 100 µM; in the experiment on HT29 colon it was 27.4 µM; in the experiment on PC-3 prostate, 23.5 µM; in the experiment with SR leukemia, 19.2 µM; in the experiment with SW-620 colon, 57 µM.
For `c1ccc2c(c1)Sc1ccccc1N2CCCN1c2ccccc2Sc2ccccc21` the same measures were more than 100 µM, more than 100 µM, more than 100 µM, more than 100 µM and more than 100 µM.
On to `O=c1ccc(-c2ccc(-n3ccnc3)cc2)nn1CCO`, for which the TGI in the experiment on CAKI-1 renal, in the experiment with HT29 colon, with PC-3 prostate, with SR leukemia and in the experiment with SW-620 colon was more than 100 µM throughout.
In the case of `CC(C)(C)c1cc(C(C)(C)C)c(P=C(Cl)Cl)c(C(C)(C)C)c1` (configuration not stated), the TGI with CAKI-1 renal, with HT29 colon, with PC-3 prostate, with SR leukemia and in the experiment with SW-620 colon was more than 100 µM each time.
For the compound `Cc1nc2ccc(S(=O)(=O)Nc3ccccn3)cc2c(=O)n1NS(=O)(=O)c1ccccn1`, the TGI with CAKI-1 renal, in the experiment with HT29 colon, in the experiment on PC-3 prostate, in the experiment with SR leukemia and with SW-620 colon was more than 100 µM in each case.
`COC1/C=C/C(C)C(C(C)C(OC)C(C)CCC(=O)C(C)C(CC(=O)O)OC)OC(=O)/C=C/C=C(\C)CC(OC)C(OC)C2=CC(=O)O[C@@H](C(C)C(OC)CC(OC)/C=C/C(C)C(O)C1)[C@H]2O` (some centres not stated): the TGI in the experiment on CAKI-1 renal is more than 1.07 µM; in the experiment with HT29 colon, 0.0701 µM; with PC-3 prostate, more than 1.07 µM; with SR leukemia, more than 1.07 µM; in the experiment with SW-620 colon it was more than 1.07 µM.
On to `O=c1oc2ccccc2cc1-c1nc2ccccc2c(=O)[nH]1`, for which the TGI with CAKI-1 renal, in the experiment on HT29 colon, in the experiment on PC-3 prostate, with SR leukemia and in the experiment with SW-620 colon was more than 100 µM throughout.
